According to US10780043B2, “Cosmetic compositions comprising ginger root extracts” (Symrise AG, priority 2015, dated 2020):

Test system: CYP1A1 gene expression
Assay: CYP1A1 gene expression (qRT-PCR) in keratinocytes after induction with model particles
Format: cell-based, human
Conditions: 10 μM, untreated = 1
Protocol: Gene expression was analyzed via qRT-PCR.

## E/Z-2-benzylindene-5,6-dimethoxy-3,3-dimethylindan-1-one [BDDI]
NHEK adult, SRM1650 1.5 μg/cm2, 6 h
  CYP1A1 Induction mean ± SE: 0.02 ± 0.00
NHEK adult, SRM2975 1.5 μg/cm2, 6 h
  CYP1A1 Induction mean ± SE: 0.20 ± 0.00
NHEK adult, SRM2975 1.5 μg/cm2, 24 h
  CYP1A1 Induction mean ± SE: 0.01 ± 0.00
Indoor particles Huber990 1.5 μg/cm2, 6 h
  CYP1A1 Induction mean ± SE: 0.05 ± 0.00
Indoor particles Huber990 1.5 μg/cm2, 24 h
  CYP1A1 Induction mean ± SE: 0.20 ± 0.00
